Reference: paper PMC5564600 (Oncotarget, 2017)
Values after ≈ are worked out from the molar mass of the structure shown.

How the values were obtained:
[1] = test system: PI3Kα; design: method as in PMID 23726034, PMID 23275335; conditions: cited from earlier work
[2] = molecular target: PI3Kγ (Homo sapiens, UniProt P48736); test: PI3K (human) HTRF assay, PI3Kγ; format: biochemical; conditions: ATP 10 μM, mean ± SEM
[3] = molecular target: mTOR (Homo sapiens, UniProt P42345); test: SelectScreen Z'LYTE kinase assay (Invitrogen), mTOR; format: biochemical; conditions: determined by Invitrogen, mean ± SEM, n=2
[4] = Plasma pharmacokinetics of SN32976 and stable major metabolites in mice (30 mg/kg oral); conditions: mouse plasma, 30 mg/kg SN32976 oral gavage
[5] = test system: CYP2B6; test: Cytochrome P450 induction in cultured hepatocytes (mRNA, qRT-PCR), CYP2B6; format: in vitro ADME; conditions: at 10 μM, hepatocytes 72 h, mean ± SD
[6] = molecular target: T1, CYP2C19 (Homo sapiens, UniProt P33261); test: Cytochrome P450 inhibition in human liver microsomes, CYP2C19; format: in vitro ADME; conditions: read-out: CYP inhibition 2C19 IC50
T1 construct: was evaluated in human liver microsomes incubated with SN32976; tissue Cyprotex (contract research organization); host or cells: human liver microsomes
T1 sequence (P33261 whole entry): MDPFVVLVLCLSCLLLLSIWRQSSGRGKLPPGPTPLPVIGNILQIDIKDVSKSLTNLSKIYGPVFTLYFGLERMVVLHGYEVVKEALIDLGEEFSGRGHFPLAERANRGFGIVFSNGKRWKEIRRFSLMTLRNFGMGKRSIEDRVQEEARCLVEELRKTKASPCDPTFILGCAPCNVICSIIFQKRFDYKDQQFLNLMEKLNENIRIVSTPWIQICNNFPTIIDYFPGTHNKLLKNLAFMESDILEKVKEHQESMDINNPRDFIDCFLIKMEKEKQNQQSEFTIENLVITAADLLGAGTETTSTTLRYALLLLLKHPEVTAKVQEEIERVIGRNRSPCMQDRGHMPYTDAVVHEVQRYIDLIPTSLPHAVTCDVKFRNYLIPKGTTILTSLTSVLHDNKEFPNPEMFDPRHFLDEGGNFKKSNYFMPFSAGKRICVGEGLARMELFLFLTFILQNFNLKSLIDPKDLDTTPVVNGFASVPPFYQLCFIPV

[7] = molecular target: T2, CYP2D6 (Homo sapiens, UniProt P10635); test: Cytochrome P450 inhibition in human liver microsomes, CYP2D6; format: in vitro ADME; conditions: read-out: CYP inhibition 2D6 IC50
T2 construct: was evaluated in human liver microsomes incubated with SN32976; tissue Cyprotex (contract research organization); host or cells: human liver microsomes

[8] = test system: CYP3A4; test: Cytochrome P450 induction in cultured hepatocytes (mRNA, qRT-PCR), CYP3A4; format: in vitro ADME; conditions: at 10 μM, hepatocytes 72 h, mean ± SD
[9] = Plasma pharmacokinetics in dogs; conditions: male, Beagle, dog, po, 10 mg/kg
[10] = molecular target: T3, CYP1A2 (Homo sapiens, UniProt P05177); test: Cytochrome P450 inhibition in human liver microsomes, CYP1A2; format: in vitro ADME; conditions: read-out: CYP inhibition 1A2 IC50
T3 construct: was evaluated in human liver microsomes incubated with SN32976; tissue Cyprotex (contract research organization); host or cells: human liver microsomes
T3 sequence (P05177 whole entry): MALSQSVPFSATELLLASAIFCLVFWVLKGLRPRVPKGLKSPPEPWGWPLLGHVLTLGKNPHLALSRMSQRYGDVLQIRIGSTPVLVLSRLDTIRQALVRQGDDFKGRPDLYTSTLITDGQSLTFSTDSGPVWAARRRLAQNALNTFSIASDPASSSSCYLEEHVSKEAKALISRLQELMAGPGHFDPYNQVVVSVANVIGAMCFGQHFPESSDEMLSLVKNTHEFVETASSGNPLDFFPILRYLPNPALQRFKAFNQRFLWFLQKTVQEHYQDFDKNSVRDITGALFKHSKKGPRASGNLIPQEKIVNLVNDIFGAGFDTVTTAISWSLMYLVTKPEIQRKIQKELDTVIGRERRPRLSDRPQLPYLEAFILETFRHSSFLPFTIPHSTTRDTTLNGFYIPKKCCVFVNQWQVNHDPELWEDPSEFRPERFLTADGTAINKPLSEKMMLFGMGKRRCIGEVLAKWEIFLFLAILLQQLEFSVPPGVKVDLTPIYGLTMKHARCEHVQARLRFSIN

[11] = Solubility in potassium phosphate buffer; format: physicochemical; conditions: aqueous buffer, thermodynamic from solid
[12] = molecular target: T4, CYP3A4 (Homo sapiens, UniProt P08684); test: Cytochrome P450 inhibition in human liver microsomes, CYP3A4; format: in vitro ADME; conditions: read-out: CYP inhibition 3A4 IC50
T4 construct: was evaluated in human liver microsomes incubated with SN32976; tissue Cyprotex (contract research organization); host or cells: human liver microsomes

[13] = Plasma pharmacokinetics in rats; conditions: male, Sprague-Dawley, rat, po, 10 mg/kg
[14] = Rat dose proportionality study (oral); conditions: male, Sprague-Dawley, plasma
[15] = molecular target: T5, PIK3C2B (Homo sapiens, UniProt O00750); test: KINOMEscan, PIK3C2B; format: binding; conditions: 10 μM
T5 construct: purchased Ambit Biosciences (scanMAXX KINOMEscan)

[16] = Plasma pharmacokinetics in mice; conditions: male, CD1, mouse, po, 20 mg/kg
[17] = test system: CYP1A2; test: Cytochrome P450 induction in cultured hepatocytes (mRNA, qRT-PCR), CYP1A2; format: in vitro ADME; conditions: at 10 μM, hepatocytes 72 h, mean ± SD
[18] = molecular target: T6, CYP2C9 (Homo sapiens, UniProt P11712); test: Cytochrome P450 inhibition in human liver microsomes, CYP2C9; format: in vitro ADME; conditions: mean ± SD, read-out: CYP inhibition 2C9 IC50
T6 construct: was evaluated in human liver microsomes incubated with SN32976; tissue Cyprotex (contract research organization); host or cells: human liver microsomes

[19] = molecular target: T7, PIK3C2G (Homo sapiens, UniProt O75747); test: KINOMEscan, PIK3C2G; format: binding; conditions: 10 μM
T7 construct: purchased Ambit Biosciences (scanMAXX KINOMEscan)
T7 sequence (O75747 1-1486): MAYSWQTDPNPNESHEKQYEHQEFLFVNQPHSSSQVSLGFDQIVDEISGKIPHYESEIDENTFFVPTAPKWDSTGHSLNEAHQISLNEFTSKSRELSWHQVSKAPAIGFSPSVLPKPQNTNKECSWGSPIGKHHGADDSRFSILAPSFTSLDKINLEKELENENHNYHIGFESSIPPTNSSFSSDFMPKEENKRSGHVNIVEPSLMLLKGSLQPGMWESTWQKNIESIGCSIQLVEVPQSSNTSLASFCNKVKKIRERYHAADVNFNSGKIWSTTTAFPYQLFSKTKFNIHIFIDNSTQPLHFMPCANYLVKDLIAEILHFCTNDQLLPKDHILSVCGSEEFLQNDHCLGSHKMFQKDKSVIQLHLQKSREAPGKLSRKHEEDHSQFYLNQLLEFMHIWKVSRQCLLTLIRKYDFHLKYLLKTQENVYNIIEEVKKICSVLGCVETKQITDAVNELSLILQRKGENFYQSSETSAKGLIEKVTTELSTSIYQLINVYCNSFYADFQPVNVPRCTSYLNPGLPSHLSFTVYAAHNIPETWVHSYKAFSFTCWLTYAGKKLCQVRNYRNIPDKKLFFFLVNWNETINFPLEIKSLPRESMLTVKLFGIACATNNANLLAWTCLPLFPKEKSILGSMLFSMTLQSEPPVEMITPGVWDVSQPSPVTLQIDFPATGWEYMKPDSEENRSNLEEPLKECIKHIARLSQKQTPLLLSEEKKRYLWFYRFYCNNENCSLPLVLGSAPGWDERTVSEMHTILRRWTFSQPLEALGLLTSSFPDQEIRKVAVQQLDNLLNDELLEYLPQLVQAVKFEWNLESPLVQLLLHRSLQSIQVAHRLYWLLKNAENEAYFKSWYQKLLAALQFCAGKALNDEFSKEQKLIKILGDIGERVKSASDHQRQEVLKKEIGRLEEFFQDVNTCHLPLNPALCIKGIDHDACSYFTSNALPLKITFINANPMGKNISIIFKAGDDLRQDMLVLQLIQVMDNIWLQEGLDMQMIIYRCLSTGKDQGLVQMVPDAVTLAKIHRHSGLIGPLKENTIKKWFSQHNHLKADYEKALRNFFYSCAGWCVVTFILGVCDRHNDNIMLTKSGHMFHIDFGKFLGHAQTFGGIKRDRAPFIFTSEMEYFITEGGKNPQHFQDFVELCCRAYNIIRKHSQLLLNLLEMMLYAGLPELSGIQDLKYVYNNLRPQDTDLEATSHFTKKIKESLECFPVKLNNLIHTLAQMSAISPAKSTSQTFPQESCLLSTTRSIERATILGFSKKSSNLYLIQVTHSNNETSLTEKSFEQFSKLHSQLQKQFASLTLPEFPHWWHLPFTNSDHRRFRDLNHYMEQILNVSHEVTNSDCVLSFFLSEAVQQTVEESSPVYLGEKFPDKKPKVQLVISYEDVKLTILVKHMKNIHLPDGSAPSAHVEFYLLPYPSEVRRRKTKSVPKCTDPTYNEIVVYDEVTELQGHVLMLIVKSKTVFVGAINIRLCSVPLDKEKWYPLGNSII

[20] = Metabolite identification in dog liver microsomes; format: in vitro ADME; conditions: 10 μM SN32976, 60 min
Experimental: (§1) The reaction was quenched by mixing samples with acetonitrile and internal standard. […] Observation of parent compound and metabolites was achieved using electrospray ionization while performing a mass scan from 300-750 m/z. For observed peaks, the m/z was determined and product ion scans were carried out.

[21] = Metabolite identification in monkey liver microsomes; format: in vitro ADME, Cynomolgus monkey; conditions: 10 μM SN32976, 60 min
Experimental: as §1

[22] = Metabolite identification in mouse liver microsomes; format: in vitro ADME; conditions: 10 μM SN32976, 60 min
Experimental: as §1

[23] = Metabolite identification in rat liver microsomes; format: in vitro ADME; conditions: 10 μM SN32976, 60 min
Experimental: as §1

[24] = Metabolite identification in human liver microsomes; format: in vitro ADME; conditions: 10 μM SN32976, 60 min
Experimental: as §1

[25] = molecular target: PI3Kδ (Homo sapiens, UniProt O00329); test: PI3K (human) HTRF assay, PI3Kδ; format: biochemical; conditions: ATP 10 μM, mean ± SEM
[26] = Tumor and plasma concentrations of SN32976 and major metabolites in mice with U-87 MG tumors after multiple doses; conditions: multiple doses of 100 mg/kg SN32976
[27] = molecular target: PI3Kα (Homo sapiens, UniProt P42336); test: PI3K (human) HTRF assay, PI3Kα; format: biochemical
PI3Kα (Homo sapiens, UniProt P42336), sequence (P42336 whole entry): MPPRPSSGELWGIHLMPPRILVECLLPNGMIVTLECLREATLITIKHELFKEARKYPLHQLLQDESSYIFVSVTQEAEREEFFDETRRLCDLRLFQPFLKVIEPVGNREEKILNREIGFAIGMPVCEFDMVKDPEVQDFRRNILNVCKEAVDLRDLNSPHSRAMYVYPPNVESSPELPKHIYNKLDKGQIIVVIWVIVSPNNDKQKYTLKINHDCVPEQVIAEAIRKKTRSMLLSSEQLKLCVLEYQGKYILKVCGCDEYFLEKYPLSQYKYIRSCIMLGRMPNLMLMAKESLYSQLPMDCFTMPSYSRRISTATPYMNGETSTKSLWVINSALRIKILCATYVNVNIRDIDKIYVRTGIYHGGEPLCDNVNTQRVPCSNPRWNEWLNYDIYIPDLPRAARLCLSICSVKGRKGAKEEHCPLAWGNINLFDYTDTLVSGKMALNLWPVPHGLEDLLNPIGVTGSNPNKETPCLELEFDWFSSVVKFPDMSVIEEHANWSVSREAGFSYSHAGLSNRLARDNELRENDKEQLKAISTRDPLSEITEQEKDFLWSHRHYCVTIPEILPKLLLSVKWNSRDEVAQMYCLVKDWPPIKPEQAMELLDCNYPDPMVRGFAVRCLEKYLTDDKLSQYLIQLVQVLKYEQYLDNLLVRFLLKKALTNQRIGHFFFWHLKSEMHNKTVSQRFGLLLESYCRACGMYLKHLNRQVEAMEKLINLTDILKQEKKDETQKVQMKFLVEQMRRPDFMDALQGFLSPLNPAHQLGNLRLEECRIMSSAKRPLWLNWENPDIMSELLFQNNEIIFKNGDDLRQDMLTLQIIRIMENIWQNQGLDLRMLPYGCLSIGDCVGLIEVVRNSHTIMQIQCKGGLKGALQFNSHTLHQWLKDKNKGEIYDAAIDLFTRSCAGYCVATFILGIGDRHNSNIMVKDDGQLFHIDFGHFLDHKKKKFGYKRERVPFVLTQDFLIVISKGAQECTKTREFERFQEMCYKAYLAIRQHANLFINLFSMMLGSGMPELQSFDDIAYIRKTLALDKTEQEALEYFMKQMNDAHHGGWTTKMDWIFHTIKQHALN
PI3Kα (Homo sapiens, UniProt P42336), sequence (P27986 whole entry partner): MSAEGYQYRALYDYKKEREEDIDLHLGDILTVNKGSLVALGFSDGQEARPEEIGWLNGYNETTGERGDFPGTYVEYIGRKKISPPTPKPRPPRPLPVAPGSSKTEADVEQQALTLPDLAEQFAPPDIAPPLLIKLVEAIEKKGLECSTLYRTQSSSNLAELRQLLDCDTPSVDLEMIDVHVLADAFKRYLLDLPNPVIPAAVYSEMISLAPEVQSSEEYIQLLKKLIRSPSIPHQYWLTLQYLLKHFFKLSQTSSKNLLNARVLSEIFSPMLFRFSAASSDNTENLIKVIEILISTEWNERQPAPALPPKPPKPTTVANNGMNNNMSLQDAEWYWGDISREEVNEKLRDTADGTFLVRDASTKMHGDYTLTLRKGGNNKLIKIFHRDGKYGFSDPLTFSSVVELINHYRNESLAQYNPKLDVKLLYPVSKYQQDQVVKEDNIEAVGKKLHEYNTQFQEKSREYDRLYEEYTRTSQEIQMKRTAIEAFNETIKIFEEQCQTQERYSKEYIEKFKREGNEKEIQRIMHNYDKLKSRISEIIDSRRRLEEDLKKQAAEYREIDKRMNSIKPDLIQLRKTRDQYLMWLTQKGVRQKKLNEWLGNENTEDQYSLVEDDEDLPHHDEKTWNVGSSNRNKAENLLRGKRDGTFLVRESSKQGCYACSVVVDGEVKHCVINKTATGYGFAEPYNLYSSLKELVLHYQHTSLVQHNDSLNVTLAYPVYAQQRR

[28] = molecular target: PI3Kβ (Homo sapiens, UniProt P42338); test: PI3K (human) HTRF assay, PI3Kβ; format: biochemical; conditions: ATP 10 μM, mean ± SEM
PI3Kβ, sequence (P42338 whole entry): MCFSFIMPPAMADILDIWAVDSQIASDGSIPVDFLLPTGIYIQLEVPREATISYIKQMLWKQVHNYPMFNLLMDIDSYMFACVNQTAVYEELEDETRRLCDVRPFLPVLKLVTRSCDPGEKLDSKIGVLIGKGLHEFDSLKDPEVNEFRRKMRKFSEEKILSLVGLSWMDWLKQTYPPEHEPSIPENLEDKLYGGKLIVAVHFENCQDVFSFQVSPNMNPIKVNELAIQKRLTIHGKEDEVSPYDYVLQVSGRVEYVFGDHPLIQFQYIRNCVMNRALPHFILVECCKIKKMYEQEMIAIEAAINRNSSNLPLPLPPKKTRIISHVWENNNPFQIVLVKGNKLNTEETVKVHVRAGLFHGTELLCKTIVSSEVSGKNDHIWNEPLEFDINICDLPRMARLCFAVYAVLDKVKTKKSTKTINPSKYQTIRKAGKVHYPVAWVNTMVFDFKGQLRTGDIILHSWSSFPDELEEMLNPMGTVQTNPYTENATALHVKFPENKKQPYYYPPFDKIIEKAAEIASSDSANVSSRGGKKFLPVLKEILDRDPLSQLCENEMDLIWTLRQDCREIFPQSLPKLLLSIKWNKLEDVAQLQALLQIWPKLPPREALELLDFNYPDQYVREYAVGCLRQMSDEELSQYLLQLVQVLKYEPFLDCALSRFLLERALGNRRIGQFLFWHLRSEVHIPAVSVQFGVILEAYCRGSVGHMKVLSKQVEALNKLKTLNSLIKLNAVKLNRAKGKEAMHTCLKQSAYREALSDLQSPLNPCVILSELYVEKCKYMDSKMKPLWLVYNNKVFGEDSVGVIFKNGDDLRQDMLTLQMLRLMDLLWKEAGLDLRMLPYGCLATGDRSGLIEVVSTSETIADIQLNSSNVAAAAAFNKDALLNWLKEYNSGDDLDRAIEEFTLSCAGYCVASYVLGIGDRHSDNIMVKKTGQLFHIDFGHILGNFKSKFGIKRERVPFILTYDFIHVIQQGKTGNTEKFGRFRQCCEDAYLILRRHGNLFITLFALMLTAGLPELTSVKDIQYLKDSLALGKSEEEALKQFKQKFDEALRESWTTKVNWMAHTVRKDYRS
PI3Kβ, sequence (P27986 whole entry partner): as the sequence (P27986 whole entry partner) above

PI3Kγ, sequence (P48736 whole entry): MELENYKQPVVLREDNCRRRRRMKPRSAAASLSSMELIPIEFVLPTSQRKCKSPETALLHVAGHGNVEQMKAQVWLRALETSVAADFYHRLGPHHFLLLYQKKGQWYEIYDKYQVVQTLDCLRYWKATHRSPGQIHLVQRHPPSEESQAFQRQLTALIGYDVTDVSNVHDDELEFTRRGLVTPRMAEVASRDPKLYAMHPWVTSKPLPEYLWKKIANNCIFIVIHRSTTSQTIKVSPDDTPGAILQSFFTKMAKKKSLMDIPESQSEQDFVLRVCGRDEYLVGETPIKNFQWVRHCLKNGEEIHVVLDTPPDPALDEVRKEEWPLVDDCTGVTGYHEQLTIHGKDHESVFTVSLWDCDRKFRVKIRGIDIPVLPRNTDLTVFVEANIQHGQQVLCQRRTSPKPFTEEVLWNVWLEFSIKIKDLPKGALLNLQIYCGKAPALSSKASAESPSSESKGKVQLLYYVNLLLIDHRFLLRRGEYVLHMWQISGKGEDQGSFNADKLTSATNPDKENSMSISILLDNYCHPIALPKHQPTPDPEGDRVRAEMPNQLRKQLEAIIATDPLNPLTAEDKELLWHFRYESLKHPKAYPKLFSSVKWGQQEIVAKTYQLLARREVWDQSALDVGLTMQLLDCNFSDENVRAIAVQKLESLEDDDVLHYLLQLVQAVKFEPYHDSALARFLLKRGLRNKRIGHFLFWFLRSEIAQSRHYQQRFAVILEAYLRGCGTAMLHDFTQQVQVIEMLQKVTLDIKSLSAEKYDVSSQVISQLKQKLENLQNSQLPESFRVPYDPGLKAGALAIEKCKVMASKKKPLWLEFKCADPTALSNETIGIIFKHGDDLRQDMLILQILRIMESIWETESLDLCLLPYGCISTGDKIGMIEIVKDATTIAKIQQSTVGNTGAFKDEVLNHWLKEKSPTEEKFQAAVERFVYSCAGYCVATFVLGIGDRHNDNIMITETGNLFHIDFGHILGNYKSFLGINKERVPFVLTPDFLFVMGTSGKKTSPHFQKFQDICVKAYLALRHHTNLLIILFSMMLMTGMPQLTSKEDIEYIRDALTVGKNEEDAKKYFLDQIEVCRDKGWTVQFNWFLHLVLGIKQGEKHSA

Structure (SMILES): Nc1nc2cc(-c3ccc4ncc(C(=O)N5CCOCC5)n4c3)ccc2o1 [serabelisib]
- selectivity for PI3Kα over other class I PI3K isoforms and mTOR [1]: > 50 fold

Structure (SMILES): CNCCS(=O)(=O)N1CCN(c2nc(N3CCOCC3)nc(-n3c(C(F)F)nc4c(OC)cccc43)n2)CC1 [M9]
- IC50 [2]: 90.3 ± 17.1 nM
- IC50 [3]: 244 ± 56 nM
- contribution to combined plasma AUC [4]: 27.1%

Structure (SMILES): COc1cccc2c1nc(C(F)F)n2-c1nc(N2CCOCC2)nc(N2CCN(S(=O)(=O)CCN)CC2)n1 [M8]
- IC50 [2]: 68 ± 18.6 nM
- contribution to combined plasma AUC [4]: 0.13%

Structure (SMILES): COc1cccc2c1nc(C(F)F)n2-c1nc(N2CCOCC2)nc(N2CCN(S(=O)(=O)CCN(C)C)CC2)n1 [SN32976, 2-((4-(4-(2-(difluoromethyl)-4-methoxy-1H-benzo[d]imidazol-1-yl)-6-morpholino-1,3,5-triazin-2-yl)piperazin-1-yl)sulfonyl)-N, N-dimethylethan-1-amine]
- CYP induction 2B6 [5]: 0.31 ± 0.01
- IC50 [6]: > 25000 nM
- IC50 [2]: 110 ± 41 nM
- IC50 [7]: > 25000 nM
- IC50 [3]: 194 ± 55 nM
- CYP induction 3A4 [8]: 1.39 ± 0.21
- AUC [9]: 3.22 µM·h
- bioavailability [9]: 35.9%
- IC50 [10]: > 25000 nM
- solubility ([11]; pH 2.0): > 100000 µM
- solubility ([11]; pH 7.4, mean ± SD): 11.2 µM (≈ 6.51 µg/mL)
- IC50 [12]: > 25000 nM
- AUC [13]: 0.579 µM·h
- bioavailability [13]: 8.1%
- AUC ([14]; 10 mg/kg): 0.417 µM·h
- Cmax ([14]; 10 mg/kg): 34.1 nM
- Tmax ([14]; 10 mg/kg): 4 h
- half-life ([14]; 10 mg/kg): 2.27 h
- AUC ([14]; 30 mg/kg): 1.07 µM·h
- Cmax ([14]; 30 mg/kg): 125 nM
- Tmax ([14]; 30 mg/kg): 1 h
- half-life ([14]; 30 mg/kg): 4.62 h
- AUC ([14]; 100 mg/kg): 16.4 µM·h
- Cmax ([14]; 100 mg/kg): 893 nM
- Tmax ([14]; 100 mg/kg): 1 h
- half-life ([14]; 100 mg/kg): 9.77 h
- AUC ([14]; 300 mg/kg): 139 µM·h
- Cmax ([14]; 300 mg/kg): 6810 nM
- Tmax ([14]; 300 mg/kg): 4 h
- off-target activity against PIK3C2B [15]: off-target activity
- AUC [16]: 2.5 µM·h
- bioavailability [16]: 33.4%
- contribution to combined plasma AUC [4]: 71.8%
- CYP induction 1A2 [17]: 1.27 ± 0.01
- IC50 [18]: 20000 nM
- off-target activity against PIK3C2G [19]: off-target activity

Structure (SMILES): Cc1nc(NC(=O)N2CCC[C@H]2C(N)=O)sc1-c1ccnc(C(C)(C)C(F)(F)F)c1 [alpelisib]
- selectivity for PI3Kα over other class I PI3K isoforms and mTOR [1]: > 50 fold

Structure (SMILES): COc1cccc2c1nc(C(F)F)n2-c1nc(N2CCOCC2)nc(N2CCN(S(=O)(=O)CC[N+](C)(C)[O-])CC2)n1 [M10]
- metabolite quantity in liver microsomes (relative peak area class) [20]: minor (minor (1-10% relative peak areas))
- metabolite quantity in liver microsomes (relative peak area class) [21]: minor (minor (1-10% relative peak areas))
- metabolite quantity in liver microsomes (relative peak area class) [22]: major (major (>10% relative peak areas))
- metabolite quantity in liver microsomes (relative peak area class) [23]: major (major (>10% relative peak areas))
- metabolite quantity in liver microsomes (relative peak area class) [24]: trace (trace (<1% relative peak areas in the total ion chromatograph))

Structure (SMILES): C=CS(=O)(=O)N1CCN(c2nc(N3CCOCC3)nc(-n3c(C(F)F)nc4c(OC)cccc43)n2)CC1 [M17]
- metabolite quantity in liver microsomes (relative peak area class) [20]: major (major (>10% relative peak areas))
- IC50 [2]: 26.3 ± 2.6 nM
- IC50 [3]: 74.9 ± 25.1 nM
- metabolite quantity in liver microsomes (relative peak area class) [21]: major (major (>10% relative peak areas))
- IC50 [25]: 55 ± 24.1 nM
- contribution to combined plasma AUC [4]: 1.0%
- metabolite quantity in liver microsomes (relative peak area class) [22]: major (major (>10% relative peak areas))
- metabolite quantity in liver microsomes (relative peak area class) [23]: major (major (>10% relative peak areas))
- metabolite AUC relative to parent in plasma [26]: 8.8 % of parent
- metabolite AUC relative to parent in tumor [26]: 2.4 % of parent
- IC50 ([27]; HTRF assay, ATP 10 μM, mean ± SEM): 6.2 ± 0.5 nM
- selectivity for PI3Kα over all other PI3K isoforms and mTOR ([27]; ratio of biochemical IC50): 4.2 fold
- metabolite quantity in liver microsomes (relative peak area class) [24]: major (major (>10% relative peak areas))
- IC50 [28]: > 1000 nM
- IC50 PI3Kβ [28]: lacked activity
